Tested on: HEK293T cells
Test: CellTiter-Glo cytotoxicity assay in HEK293T cells
Type: cell-based, human
Settings: 24 h, 25 μM and 8.3 μM
Procedure: Cytotoxicity induced by the compounds in HEK293T cells and primary human calvarial osteoblasts (HCO) (ScienCell Research Laboratories, San Diego, CA) were tested using the […]-GLO™ Luminescent Cell Viability Assay (Promega, Madison, WI). This is a luminescence-based assay that determines viable cells by measuring cellular adenosine triphosphate (ATP) production. The luciferase enzyme requires ATP to catalyze the conversion of beetle luciferin to oxyluciferin and light. Thus, luciferase activity is proportional to ATP accumulation in the cells. For this assay, 96-well flat-bottom opaque plates seeded with HEK293T cells at 5,000 cells/well and HCO cells at 3,000 cells/well in 100 μL/well of growth medium (DMEM, 10% FBS, 1× Penicillin/Streptomycin). After incubating overnight at 37° C., 5% CO2 to allow attachment, cells were treated with 1 μL/well of compound (25-0.1 μM) or DMSO vehicle and incubated an additional 24 hours. Then cells were equilibrated for 30 minutes at room temperature and 100 μL/well of […]-GLO™ Reagent was added. Plates were placed on an orbital shaker for 2 minutes and incubated at room temperature for 10 minutes to stabilize the luminescent signal, which was read immediately after on a CLARIOstar plate reader (BMG Labtech, Germany). […] The HEK293T results represent the means±SEM of 3 technical replicates. The HCO results represent the means±SEM of 3 independent experiments.

## O=C1Nc2ccc(-c3cccc(C(F)(F)F)c3)cc2C(=O)N2CCN(C(=O)COc3ccc(OC(F)(F)F)cc3Br)C[C@@H]12 [Example 123, (S)-2-(2-(2-bromo-4-(trifluoromethoxy)phenoxy)acetyl)-8-(3-(trifluoromethyl)phenyl)-1,3,4,12a-tetrahydrobenzo[e]pyrazino[1,2-a][1,4]diazepine-6,12 (2H, 11H)-dione]
  cytotoxicity: some toxicity
